According to the Kinase Knowledgebase extract (Sharma et al. 2016):

How the values were obtained:
[1] = test system: EGFR (human), P00533 [WT]; conditions: a431
[2] = test system: EGFR (Human), P00533 [Assessment of Proliferation in EGFR DelE746_A750 Mutant Expressing HCC827 Cells]
[3] = test system: EGFR (Human), P00533 [T790M/L858R]; conditions: nci-h1975
Sequence of EGFR (Human), P00533 [T790M/L858R] (P00533 whole entry T790M/L858R, looked up): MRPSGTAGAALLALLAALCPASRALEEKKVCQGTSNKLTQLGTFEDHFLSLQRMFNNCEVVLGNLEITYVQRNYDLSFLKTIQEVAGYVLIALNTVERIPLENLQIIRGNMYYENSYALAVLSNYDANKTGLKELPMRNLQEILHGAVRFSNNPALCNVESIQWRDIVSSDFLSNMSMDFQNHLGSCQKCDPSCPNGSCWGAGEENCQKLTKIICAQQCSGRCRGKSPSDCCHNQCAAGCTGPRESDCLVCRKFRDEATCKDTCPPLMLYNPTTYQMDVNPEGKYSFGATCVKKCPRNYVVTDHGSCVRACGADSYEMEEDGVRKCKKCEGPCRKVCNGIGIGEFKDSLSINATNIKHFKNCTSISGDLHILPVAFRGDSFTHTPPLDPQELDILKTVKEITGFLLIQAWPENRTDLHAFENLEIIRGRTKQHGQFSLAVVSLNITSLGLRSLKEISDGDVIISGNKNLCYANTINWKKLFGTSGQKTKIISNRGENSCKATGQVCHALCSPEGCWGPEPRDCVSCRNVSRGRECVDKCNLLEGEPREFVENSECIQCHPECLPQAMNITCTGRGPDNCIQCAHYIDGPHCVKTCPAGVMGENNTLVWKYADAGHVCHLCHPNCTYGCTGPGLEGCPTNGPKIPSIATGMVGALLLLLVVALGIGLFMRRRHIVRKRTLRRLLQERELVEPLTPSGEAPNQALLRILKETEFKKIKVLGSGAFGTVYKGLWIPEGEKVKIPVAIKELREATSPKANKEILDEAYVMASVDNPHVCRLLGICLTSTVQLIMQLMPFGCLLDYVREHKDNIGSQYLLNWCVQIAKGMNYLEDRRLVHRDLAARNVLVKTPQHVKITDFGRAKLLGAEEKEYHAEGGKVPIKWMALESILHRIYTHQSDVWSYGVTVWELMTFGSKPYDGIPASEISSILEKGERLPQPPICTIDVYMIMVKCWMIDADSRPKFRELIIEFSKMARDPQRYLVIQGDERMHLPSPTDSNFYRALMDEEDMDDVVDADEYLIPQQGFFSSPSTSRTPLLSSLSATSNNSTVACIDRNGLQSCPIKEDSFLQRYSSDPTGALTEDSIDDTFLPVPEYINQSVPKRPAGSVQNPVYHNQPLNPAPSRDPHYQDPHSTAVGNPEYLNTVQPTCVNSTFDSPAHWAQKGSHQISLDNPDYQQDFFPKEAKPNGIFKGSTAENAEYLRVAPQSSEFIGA

Sequence of EGFR (Human), P00533 [Assessment of Proliferation in EGFR DelE746_A750 Mutant Expressing HCC827 Cells] (P00533 whole entry, looked up, stated change not applied): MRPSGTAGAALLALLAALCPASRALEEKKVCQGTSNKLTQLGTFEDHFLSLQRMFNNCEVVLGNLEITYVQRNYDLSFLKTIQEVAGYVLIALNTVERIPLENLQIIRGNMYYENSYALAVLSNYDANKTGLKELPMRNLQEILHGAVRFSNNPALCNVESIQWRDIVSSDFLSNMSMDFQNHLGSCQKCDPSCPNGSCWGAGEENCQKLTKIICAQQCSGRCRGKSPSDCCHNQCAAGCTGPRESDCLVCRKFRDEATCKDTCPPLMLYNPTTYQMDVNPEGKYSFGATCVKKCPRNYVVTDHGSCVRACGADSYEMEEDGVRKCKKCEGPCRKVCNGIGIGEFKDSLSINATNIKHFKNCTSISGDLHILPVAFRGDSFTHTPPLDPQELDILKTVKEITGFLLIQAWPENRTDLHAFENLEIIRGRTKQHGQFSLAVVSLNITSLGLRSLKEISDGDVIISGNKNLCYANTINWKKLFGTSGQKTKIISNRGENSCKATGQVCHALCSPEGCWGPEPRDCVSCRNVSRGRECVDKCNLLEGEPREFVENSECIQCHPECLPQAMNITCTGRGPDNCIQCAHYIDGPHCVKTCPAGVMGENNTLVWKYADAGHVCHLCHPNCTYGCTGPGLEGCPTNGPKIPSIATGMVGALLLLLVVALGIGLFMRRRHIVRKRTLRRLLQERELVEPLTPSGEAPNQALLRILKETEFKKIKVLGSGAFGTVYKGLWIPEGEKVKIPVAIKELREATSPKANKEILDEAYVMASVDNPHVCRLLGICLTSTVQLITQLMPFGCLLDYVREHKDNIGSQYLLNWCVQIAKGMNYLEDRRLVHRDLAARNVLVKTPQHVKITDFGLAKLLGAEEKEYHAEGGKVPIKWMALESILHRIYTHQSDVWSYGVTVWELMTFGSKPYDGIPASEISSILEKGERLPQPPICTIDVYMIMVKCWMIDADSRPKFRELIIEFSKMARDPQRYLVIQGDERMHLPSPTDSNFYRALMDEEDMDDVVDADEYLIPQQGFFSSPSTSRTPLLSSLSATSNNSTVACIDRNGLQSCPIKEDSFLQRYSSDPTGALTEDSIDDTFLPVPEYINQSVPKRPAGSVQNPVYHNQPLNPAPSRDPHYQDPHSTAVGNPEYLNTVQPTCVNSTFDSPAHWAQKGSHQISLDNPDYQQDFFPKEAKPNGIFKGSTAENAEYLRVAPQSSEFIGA
Sequence of EGFR (human), P00533 [WT] (P00533 whole entry, looked up): as the sequence (P00533 whole entry, looked up, stated change not applied) above

`C=CC(=O)Nc1cccc(Oc2nc(Nc3ccc(CN(C)C)cc3)nc3ccsc23)c1` gave a GI50 [1] of 100 to 1000 nM, a GI50 [2] of at most 50 nM and a GI50 [3] of at most 50 nM.

With `C=CC(=O)Nc1cccc(Oc2nc(Nc3ccc(NC(=O)N4CCN(C)CC4)cc3)nc3ccsc23)c1` the GI50 [2] was 50 to 100 nM and the GI50 [3] was at most 50 nM.

Work on `C=CC(=O)Nc1cccc(Oc2nc(Nc3ccc(N4CCC(N5CCOCC5)CC4)c(F)c3)nc3ccsc23)c1` yielded a GI50 [2] of at most 50 nM and a GI50 [3] of at most 50 nM.

`C=CC(=O)Nc1cccc(Oc2nc(Nc3ccc(CP(=O)(OC)OC)cc3)nc3ccsc23)c1` showed a GI50 [2] of at most 50 nM and a GI50 [3] of at most 50 nM.

`C=CC(=O)Nc1cccc(Oc2nc(Nc3ccc(N4CCC(n5ccnc5)C4)cc3)nc3ccsc23)c1` (centres undefined) was tested, and the GI50 [2] was at most 50 nM and the GI50 [3] was at most 50 nM.

For `C=CC(=O)Nc1cccc(Oc2nc(Nc3ccc(CN4CCN(CC5CC5)CC4)cc3)nc3ccsc23)c1`, the GI50 [2] was at most 50 nM and the GI50 [3] was at most 50 nM.

With `C=CC(=O)Nc1cccc(Oc2nc(Nc3ccc(C[S+](C)[O-])cc3)nc3ccsc23)c1` (centres undefined) the GI50 [2] was at most 50 nM and the GI50 [3] was at most 50 nM.

With `C=CC(=O)Nc1cccc(Oc2nc(Nc3ccc4c(ccn4C)c3)nc3ccsc23)c1` the GI50 [2] was 50 to 100 nM and the GI50 [3] was at most 50 nM.

`C=CC(=O)Nc1cccc(Oc2nc(Nc3ccc(NC4CCN(C(C)C)CC4)nc3)nc3ccsc23)c1` was tested, and the GI50 [2] was 50 to 100 nM and the GI50 [3] was 50 to 100 nM.

Compound `C=CC(=O)Nc1cccc(Nc2nc(Nc3ccc(C4CCN(C)CC4)cc3)nc3ccsc23)c1` has a GI50 [2] of at most 50 nM and a GI50 [3] of at most 50 nM.

In the case of `C=CC(=O)Nc1cccc(Oc2nc(Nc3ccc(N4CCN(C)CC4)c(C)c3)nc3ccsc23)c1`, the GI50 [2] was at most 50 nM and the GI50 [3] was at most 50 nM.

Compound `C=CC(=O)Nc1cccc(Oc2nc(Nc3ccc(N4CCCCC4)cc3)nc3ccsc23)c1` has a GI50 [2] of 100 to 1000 nM and a GI50 [3] of at most 50 nM.

With `C=CC(=O)Nc1cccc(Oc2nc(Nc3ccc(N4CCN(C5CCN(C)CC5)CC4)cc3)nc3ccsc23)c1` the GI50 [2] was at most 50 nM and the GI50 [3] was at most 50 nM.

`C=CC(=O)Nc1cccc(Oc2nc(Nc3ccc(N4CCSCC4)cc3)nc3ccsc23)c1` gave a GI50 [2] of 100 to 1000 nM and a GI50 [3] of at most 50 nM.

With `C=CC(=O)Nc1cccc(Nc2nc(Nc3ccc(C4CCN(C)CC4)c(F)c3)nc3ccsc23)c1` the GI50 [2] was at most 50 nM and the GI50 [3] was at most 50 nM.

`C=CC(=O)Nc1cccc(Oc2nc(Nc3ccc(C(=O)NC)cc3)nc3ccsc23)c1` was tested, and the GI50 [2] was 50 to 100 nM and the GI50 [3] was 50 to 100 nM.

In the case of `C=CC(=O)Nc1cccc(Oc2nc(Nc3ccc(C(=O)N(C)C)c(Cl)c3)nc3ccsc23)c1`, the GI50 [2] was 50 to 100 nM and the GI50 [3] was at most 50 nM.

`C=CC(=O)Nc1cccc(Oc2nc(Nc3ccc(C(=O)N4CCN(CC)CC4)cc3)nc3ccsc23)c1` gave a GI50 [2] of at most 50 nM and a GI50 [3] of at most 50 nM.

In the case of `C=CC(=O)Nc1cccc(Oc2nc(Nc3ccc(NCCN(C)C)cc3)nc3ccsc23)c1`, the GI50 [2] was at most 50 nM and the GI50 [3] was 100 to 1000 nM.

In the case of `C=CC(=O)Nc1cccc(Oc2nc(Nc3ccc(N4CC(C)N(C)C(C)C4)cc3)nc3ccsc23)c1` (centres undefined), the GI50 [2] was at most 50 nM and the GI50 [3] was at most 50 nM.

`C=CC(=O)Nc1cccc(Nc2nc(Nc3ccc(N4CCN(CC)CC4)cc3)nc3ccsc23)c1` showed a GI50 [2] of at most 50 nM and a GI50 [3] of at most 50 nM.

For `C=CC(=O)Nc1cccc(Oc2nc(Nc3ccc(N4CCN(CCO)CC4)cn3)nc3ccsc23)c1`, the GI50 [2] was at most 50 nM and the GI50 [3] was 50 to 100 nM.

With `C=CC(=O)Nc1cccc(Nc2nc(Nc3ccc(OCCN(C)C)cc3)nc3ccsc23)c1` the GI50 [2] was at most 50 nM and the GI50 [3] was at most 50 nM.

With `C=CC(=O)Nc1cccc(Oc2nc(Nc3ccc(O)cc3)nc3ccsc23)c1` the GI50 [2] was 100 to 1000 nM and the GI50 [3] was 100 to 1000 nM.

Work on `C=CC(=O)Nc1cccc(Oc2nc(Nc3ccc(N4CCN(C(=O)N5CCOCC5)CC4)cc3)nc3ccsc23)c1` yielded a GI50 [2] of at most 50 nM and a GI50 [3] of 50 to 100 nM.

For `C=CC(=O)Nc1cccc(Oc2nc(Nc3ccc(OCCN4CCOCC4)c(OC)c3)nc3ccsc23)c1`, the GI50 [2] was at most 50 nM and the GI50 [3] was at most 50 nM.

In the case of `C=CC(=O)Nc1cccc(Oc2nc(Nc3ccc(C4CCN(C)CC4)cc3)nc3ccsc23)c1`, the GI50 [2] was at most 50 nM and the GI50 [3] was at most 50 nM.

With `C=CC(=O)Nc1cccc(Oc2nc(Nc3ccc(N4CCC(N5CCCCC5)CC4)c(F)c3)nc3ccsc23)c1` the GI50 [2] was at most 50 nM and the GI50 [3] was at most 50 nM.

`C=CC(=O)Nc1cccc(Nc2nc(Nc3ccc(NC4CCN(C)CC4)c(F)c3)nc3ccsc23)c1` was tested, and the GI50 [2] was at most 50 nM and the GI50 [3] was 50 to 100 nM.
